“Also recorded” adds a separate entry of the source.
Key:
D1133L RNA of ASFV = format: cell-based
ASFV fluorescent virus [1] = format: cell-based, African swine fever virus (ASFV)
PAM cells = settings: pig
p72 protein of ASFV = format: cell-based, African swine fever virus (ASFV)
p30 protein of ASFV = format: cell-based, African swine fever virus (ASFV)
ASFV fluorescent virus [2] = format: cell-based, African swine fever virus (ASFV); remark: listed apart in the source
D1133L protein of ASFV = format: cell-based
ASFV fluorescent virus [3] = assay: microbe, parasite or virus in culture; format: cell-based, African swine fever virus (ASFV)

## C[C@@H](O[C@H]1OCCN(Cc2n[nH]c(=O)[nH]2)[C@H]1c1ccc(F)cc1)c1cc(C(F)(F)F)cc(C(F)(F)F)c1 [aprepitant, 5-[2(R)-[1(R)-[3,5-bis(trifluoromethyl)phenyl]ethoxy]-3(S)-(4-fluorophenyl)morpholino-4-ylmethyl]-3,4-dihydro-2H-1,2,4-triazol-3-one]
D1133L RNA of ASFV
  inhibition rate of D1133L RNA expression level: higher than 50%
ASFV fluorescent virus [1]
  TCID50 of ASFV fluorescent virus: reduce the TCID50; also recorded: minimum
PAM cells
  cell viability: more than 50%
p72 protein of ASFV
  expression level of p72 protein: significantly decreased
p30 protein of ASFV
  expression level of p30 protein: significantly decreased
ASFV fluorescent virus [2]
  fluorescence of ASFV fluorescent virus in infected cells: gradually becomes darker; also recorded: completely disappears
D1133L protein of ASFV
  expression level of D1133L protein: significantly decreased
ASFV fluorescent virus [3]
  ASFV genome copy number: reduced
ASFV fluorescent virus [3]; African swine fever virus, 48 h, read-out: inhibition of ASFV genome copy number
  inhibition at 22 µM: > 50%

Reference: patent US11883411B2 (priority 2022, dated 2024)
